From US20240109843A1, “BENZALDEHYDE COMPOUNDS WITH DIRECT POLYMER DESTABILIZING EFFECTS TO TREAT SICKLE CELL DISEASE” (VIRGINIA COMMONWEALTH UNIVERSITY, priority 2018, published 2024)
Several values for one entry are separate records, joined by “and”; a condition that tells them apart may be missing. Identical values can stand only once.

What was measured:
Hb [1] = biological target: T1, Hb (Homo sapiens, UniProt P69905); experiment: Oxygen equilibrium curve (OEC) studies with normal whole blood; type: cell-based; parameters: Hemoglobin modification, studies using non-sickling AA blood; from tissue; host or cells: non-sickling (AA) human blood, red blood cells; details: normal whole blood, 0.5, 1, 2 mM
Experimental: Oxygen equilibrium curve (OEC) studies to determine the effect of the compounds on Hb affinity for oxygen were conducted following standard procedure. Whole blood (30% hematocrit) was incubated in the absence or presence of compounds (0.5 mM, 1.0 mM and 2.0 mM) solubilized in DMSO. […] After equilibration, the sample was removed via syringe and aspirated into an ABL 700 series table top automated blood gas analyzer (Radiometer America, Inc., Westlake, OH) to determine total hemoglobin (tHb), hematocrit (Hct), pH, pCO2, partial pressure of oxygen (pO2), and the Hb-O2 saturation (sO2) values. The measured values of pO2 and sO2 at each oxygen saturation level were then subjected to nonlinear regression analysis using the software Scientist (Micromath, Salt Lake City UT) with the following equation: […]
Aromatic aldehydes are known to prevent hypoxia-induced Hb S polymerization by increasing the Hb affinity for oxygen. We therefore tested the PP compounds in a dose-dependent manner (0.5, 1, 2 mM) for their effect on Hb oxygen binding property. […] These findings confirmed that the potent in vitro activity previously seen in TD7 was at least conserved in the novel PP compounds.
Target sequence in this assay (P69905 2-142 limits assumed): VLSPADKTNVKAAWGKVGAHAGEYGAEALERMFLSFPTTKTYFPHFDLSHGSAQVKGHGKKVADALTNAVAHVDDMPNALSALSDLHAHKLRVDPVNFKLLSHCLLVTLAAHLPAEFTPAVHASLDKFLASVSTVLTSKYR
Target sequence in this assay (P68871 2-147 partner limits assumed): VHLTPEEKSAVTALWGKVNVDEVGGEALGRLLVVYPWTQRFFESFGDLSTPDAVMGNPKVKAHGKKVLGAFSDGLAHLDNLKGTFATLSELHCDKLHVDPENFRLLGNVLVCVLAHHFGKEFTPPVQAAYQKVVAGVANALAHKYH

sickle red blood cells = experiment: Antisickling study with human sickle blood under 2.5% oxygen; type: cell-based; details: Homo sapiens, Erythrocyte, sickle RBCs, 2.5% oxygen, read-out: sickling inhibition; for inhibition at 500 µM: 0.5 mM; for inhibition at 1000 µM: 1 mM
Experimental: (§1) Blood suspensions from subjects with homozygous SCD (resuspended in Hemox™ buffer to a final hematocrit 20%) were incubated under air in the absence or presence of the compounds (0.5 mM, 1 mM and 2 mM) at 37° C. for 1 h to ensure that binding had attained equilibrium. The suspensions were then incubated under hypoxic conditions (2.5% oxygen/97.5% nitrogen) at 37° C. for 1 h. Aliquot samples were fixed with 2% glutaraldehyde solution without exposure to air, and then subjected to microscopic morphological analysis of bright field images (at 40× magnification) of single layer cells on an Olympus BX40 microscope fitted with an Infinity Lite B camera (Olympus), and the coupled Image Capture software. The residual samples were washed in phosphate-buffer saline, and hemolyzed in hypotonic lysis buffer for subsequent Hb-modification and oxygen equilibrium analyses.
The studies described above were conducted using normal whole blood. Next, we investigated whether the improvement in Hb oxygen affinity and the compounds sustained activity also translated to similar effects in SS blood from SCD patients. […] At 1 mM, PP8 and PP9 inhibited nearly 100% of sickling, while PP2, PP6, PP14 inhibited sickling by more than 70%. […] It is clear that the modifications of the present compounds has led to significant improvement in antisickling activity.

sickle Hb = biological target: T2, sickle Hb (Homo sapiens, UniProt P69905); experiment: Oxygen equilibrium (P50 shift) of lysates from treated sickle blood; type: cell-based; details: 0.5, 1 and 2 mM, SS blood
T2 construct: Blood suspensions from subjects with homozygous SCD; from tissue; host or cells: blood suspensions (20% hematocrit) from donors with homozygous SCD; lysates of the treated red cells
T2 sequence (P69905 2-142 limits assumed): as the sequence (P69905 2-142 limits assumed) above
Experimental: as §1
For oxygen equilibrium studies, approximately 100 μL aliquot samples from the above clarified lysate were added to 4 mL of 0.1M potassium phosphate buffer, pH 7.0, in cuvettes and subjected to hemoximetry analysis using a Hemox™ Analyzer (TCS Scientific Corp.) to assess P50 shifts. Degree of P50 shift (ΔP50) was expressed as percentage fractions of control DMSO-treated samples.

intracellular Hb = biological target: T3, intracellular Hb (Mus musculus, UniProt P01942); experiment: In vivo modification of intracellular Hb in wild-type mice; parameters: species or system C57BL/6 mice; details: IP 150 mg/kg, 30% PEG300, 6 h
T3 construct: from tissue; host or cells: blood (red cell lysates) of dosed C57BL/6 mice
T3 sequence (P01942 2-142 limits assumed): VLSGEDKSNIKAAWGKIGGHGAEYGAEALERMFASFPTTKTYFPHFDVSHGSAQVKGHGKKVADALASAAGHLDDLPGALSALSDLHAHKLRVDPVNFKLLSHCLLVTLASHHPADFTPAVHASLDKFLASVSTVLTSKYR
T3 sequence (P02088 2-147 partner limits assumed): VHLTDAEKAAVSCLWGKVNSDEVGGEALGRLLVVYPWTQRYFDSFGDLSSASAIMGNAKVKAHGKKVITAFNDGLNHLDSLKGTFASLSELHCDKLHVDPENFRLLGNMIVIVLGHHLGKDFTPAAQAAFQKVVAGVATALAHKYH
Experimental: We tested in vivo pharmacologic (pharmacodynamics) effects of select PP compounds in C57BL/6 mice. The animals were treated with a single intraperitoneal (IP) (150 mg/kg body weight) dose of PP6, PP10, PP14, and TD7, which were formulated with 30% PEG300. Blood samples were obtained prior to treatment (0) and 1, 3 and 6 h post-treatment, via submandibular bleeding, and subjected to hemolysis using standard methods. Clarified lysates, free of cell debris and red blood cell ghosts were analyzed by cation-exchange HPLC to determine the levels of drug-modified hemoglobin (adducts); and to conduct oxygen equilibrium studies to determine degrees of shift in p50 values using methodologies described earlier for in vitro studies on human samples. In a subsequent follow-up experiment, a new excipient obtained from Catalent Pharma Solutions was also used to formulate PP14 and used for a single intraperitoneal (IP) and oral (150 mg/kg body weight) dose. Blood samples were obtained prior to treatment (0) and 1, 3 or 5 h post-treatment, via submandibular bleeding, and used to determine the levels of drug-modified hemoglobin (adducts); and to conduct oxygen equilibrium studies to determine degrees of shift in p50 values as described above.

Hb [2] = biological target: T1, Hb; experiment: Drug partitioning studies, fixed and unfixed Hb adducts in non-sickling AA blood; type: cell-based; parameters: Hemoglobin modification, studies using non-sickling AA blood; from tissue; host or cells: non-sickling (AA) human blood, red blood cells; details: 2 mM
Experimental: RBC partitioning studies were conducted both for SS RBCs following sickling studies above, or as separate independent studies with non-sickle blood. Briefly, aliquots of blood samples, which had been incubated with test molecules, were lysed either in deionized water (un-fixed), or in water containing 50 mM sodium borohydride (fixed). Samples were subjected to cation exchange HPLC analyses, as described above. Modified […] (Hb adducts) was determined as a proportion of total Hb in each sample, and partitioning ratio was determined as the relative fraction of Hb modification of fixed samples compared to corresponding non-fixed samples. The partitioning ratio is the relative fraction of Hb that was modified intracellularly by molecules that permeated the RBC membrane, as compared to unfixed adducts which reflect Hb binding without RBC membrane permeation.
Target sequence in this assay (P69905 2-142 limits assumed): as the sequence (P69905 2-142 limits assumed) above
Target sequence in this assay (P68871 2-147 partner limits assumed): as the sequence (P68871 2-147 partner limits assumed) above

[3] = Single-dose oral pharmacokinetics in rats; type: in vivo, Sprague Dawley rats; details: Sprague Dawley, rat; single oral dose 100 mg/kg, male rats, whole blood
Experimental: Single doses of each compound were administered as oral suspensions by gavage in 0.5% carboxy methylcellulose at 100 mg/kg. Whole blood levels were collected for at least 72 hours after dose administration. Bioanalyses were performed with liquid chromatography-tandem mass spectrometry […].
Single-dose pharmacokinetics (PK) in male Sprague Dawley (SD) rats (n=4) were assessed for each compound, and the maximum or peak whole blood concentration and area under the curve are shown in Table 5.

Hb [4] = biological target: T1, Hb; experiment: Dose-dependent P50 shift in non-sickling human blood; type: cell-based; parameters: Hemoglobin modification, studies using non-sickling AA blood; from tissue; host or cells: non-sickling (AA) human blood, red blood cells; details: compared to Voxelotor at equivalent drug-Hb occupancy levels
Experimental: Non-sickling human blood was incubated with test compounds at 0.25-2 mM concentrations at 37° C. for 1 hour in 96-well round bottom plates. At conclusion, RBCs were washed once with PBS, followed by lysis with deionized water. Approximately 100 μl aliquots of individual lysates were added to 3 mL of 0.1M potassium phosphate buffer, pH 7.0 in a cuvette and subjected to hemoximetry analysis using a Hemox™ Analyzer (TCS Scientific Corp.) as previously described. Change in p50 values (Δp50) was calculated by subtracting the p50 values of treated samples from the value of the control sample and expressing the difference as a percentage of control p50 values.
Target sequence in this assay (P69905 2-142 limits assumed): as the sequence (P69905 2-142 limits assumed) above
Target sequence in this assay (P68871 2-147 partner limits assumed): as the sequence (P68871 2-147 partner limits assumed) above

[5] = 14-day repeat-dose safety (clinical observations, histopathology) in rats; type: in vivo, SD rats
Experimental: (§2) Repeat doses of each compound were administered once daily as oral suspensions by gavage in 0.5% carboxy methylcellulose for 14 days at 100 mg/kg. Whole blood was collected at 7 time-points for up to 24 hours during the final dosing interval on Day 14. Clinical observations, body weights, and food consumption were recorded throughout the 14 day study. Clinical chemistry and hematologic parameters were assessed, and histopathology was performed on organs after 14 days of exposure to study drug.
(§3) Repeat oral doses of each compound were administered by oral gavage for 14 days to male and female SD rats (n=3). […] Steady state exposures for the final dosing interval on Day 14 were similar to total compound exposure from single-dose PK.

[6] = 14-day repeat-dose oral pharmacokinetics in rats; type: in vivo; details: SD, rat, whole blood, repeat oral doses 100 mg/kg for 14 days
Experimental: as §2, §3

Hb [7] = biological target: T1, Hb; experiment: Hb modification (drug-adduct formation) in SS blood suspensions by cation-exchange HPLC; type: binding; parameters: Blood suspensions from subjects with homozygous SCD; from tissue; host or cells: blood suspensions (20% hematocrit) from donors with homozygous SCD; lysates of the treated red cells; details: 2 mM, 4 biological replicates
Experimental: All compounds (Comp 1-13) and comparator molecules (VZHE-039, PP-14, INN-310, and Voxelotor) were evaluated following established procedures. Blood samples from individual donors with homozygous SCD (obtained with informed consent) were diluted using Hemox buffer solution with the addition of glucose (10 mM) and BSA (0.2%) to adjust hematocrit of the blood suspensions to 20%, which standardizes the procedure to normalize the ratio of RBCs to drug, for assay consistency and reproducibility. Briefly, blood suspensions were incubated under room air in the presence of various concentrations of test compounds (0-2 mM) at 37° C. for 1 hour in 96-well round bottom plates. Subsequently, the suspensions were incubated with a hypoxic gas mixture (2.5% Oxygen gas/balance Nitrogen gas) at 37° C. for up to 2 hours prior to fixation with 2% glutaraldehyde solution without exposure to air. The fixated blood aliquots were evaluated by microscopic morphological analysis (image analysis on Image J software) to identify the proportion of sickled and non-sickled RBCs, and sickle inhibition calculated based on the % change from negative control (DMSO).
The residual samples were then washed in phosphate-buffered saline, and hemolyzed in hypotonic lysis buffer, with or without sodium borohydride (50 mM). Aliquots obtained from the lysates with or without sodium borohydride (to reduce Schiff base adducts) were also assessed for level of Hb modification (drug-adduct formation) by cation-exchange HPLC (Hitachi D-7000 Series, Hitachi Instruments, Inc., San Jose, CA) with a weak cation-exchange column (Poly CAT A: 50 mm×4.6 mm, Poly LC, Inc., Columbia, MD). Hemoglobin isotype peaks are eluted with a linear gradient of phase B from 0% to 80% at A410 nm (Mobile Phase A: 40 mM Bis-Tris, 2 mM KCN, pH 6.9; Phase B: 40 mM Bis-Tris, 2 mM KCN, 0.2 M sodium chloride, pH 6.55). Clarified lysate from normal human adult […] (Hb A), as well as commercial standards containing approximately equal amounts of Hb F, A, S and C (Helena Laboratories, Beaumont, TX), were utilized as reference isotypes. Reduced samples were used to assess “fixed adduct” formation (dependent on RBC membrane permeability), whereas non-reduced samples assessed drug-adduct formation independent of drug permeability.
Target sequence in this assay (P69905 2-142): as the sequence (P69905 2-142 limits assumed) above
Target sequence in this assay (P68871 with tags, fused parts or gaps E7V partner): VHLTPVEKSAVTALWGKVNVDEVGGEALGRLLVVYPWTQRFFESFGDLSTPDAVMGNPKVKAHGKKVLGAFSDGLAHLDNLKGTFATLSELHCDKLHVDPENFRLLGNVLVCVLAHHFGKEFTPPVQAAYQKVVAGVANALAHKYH

Structure (SMILES)	effect on Hb oxygen binding property (OEC) (Hb [1])	inhibition at 500 µM (sickle red blood cells)	inhibition at 1000 µM (sickle red blood cells)	increase of Hb affinity for oxygen in sickle blood (in words) (sickle Hb)	modified Hb (intracellular Hb)	Fixed Adducts (%) (Hb [2]; 6 biological replicates)	Unfixed Adduct (%) (Hb [2]; 6 biological replicates)	Partitioning Ratio (%) (Hb [2]; fixed relative to unfixed adducts)	AUC(0-inf) [3]	Cmax [3]	half-life [3]	change in p50 of Hb in human blood (in words) (Hb [4])	safety in non-clinical toxicology ([5]; above anticipated therapeutic drug levels)	clinical or histopathologic changes after 14 days of exposure ([5]; oral 100 mg/kg once daily for 14 days, rats)	AUC(0-inf) ([6]; female rats, read-out: AUC0-∞ (female))	Cmax ([6]; female rats, read-out: Cmax (female))	AUC(0-inf) ([6]; male rats, read-out: AUC0-∞ (male))	Cmax ([6]; male rats, read-out: Cmax (male))	Hb Modification (%) (Hb [7])
COC(=O)c1cccnc1COc1cccc(O)c1C=O [PP6, Methyl 2-((2-formyl-3-hydroxyphenoxy)methyl)nicotinate]	most significant activities	> 35%	> 70%	only marginally increasing Hb affinity for oxygen	16.9±1.4%														
O=Cc1c(O)cccc1OCc1ncccc1F [Comp 5, 2-((3-fluoropyridin-2-yl)methoxy)-6-hydroxybenzaldehyde]						93.1 ± 3.3%	95.8 ± 3.3%	97.2 ± 3.2%	3e+06 ng·h/mL and 12000 µM·h	86000 ng/mL and 348 µM	8.8 h	relatively weak changes in p50	without hepatotoxicity	No clinical or histopathologic changes	5.1e+06 ng·h/mL and 20600 µM·h	246000 ng/mL and 993 µM	4.2e+06 ng·h/mL and 17100 µM·h	211000 ng/mL and 854 µM	98.2 ± 2.5%
COC(=O)c1cccnc1COc1ccc(OC)cc1C=O [PP2, Methyl 2-((2-formyl-4-methoxyphenoxy)methyl)nicotinate]	most significant activities	> 35%	> 70%	only marginally increasing Hb affinity for oxygen															
